# Measured values: ChEMBL document CHEMBL5532637, “Antimicrobial activity of natural and semi-synthetic carbazole alkaloids” (Eur J Med Chem, 2023)
# Experiments:
# Staphylococcus aureus [1] = assay: Antibacterial activity against Staphylococcus aureus assessed as inhibition of bacterial growth by broth dilution method; type: functional
# Staphylococcus aureus [2] = assay: Antibacterial activity against Staphylococcus aureus TISTR 1466 assessed as inhibition of bacterial growth by two-fold serial dilution method; type: functional
# Staphylococcus aureus [3] = assay: Antibacterial activity against methicillin-resistant Staphylococcus aureus SK1 assessed as inhibition of bacterial growth by two-fold serial dilution method; type: functional
# Escherichia coli [4] = assay: Antibacterial activity against Escherichia coli TISTR 780 assessed as inhibition of bacterial growth by two-fold serial dilution method; type: functional
# Salmonella typhimurium = assay: Antibacterial activity against Salmonella typhimurium TISTR 292 assessed as inhibition of bacterial growth by two-fold serial dilution method; type: functional, Salmonella enterica subsp. enterica serovar Typhimurium; conditions: Salmonella enterica
# [5] = system: Staphylococcus epidermidis; assay: Antibacterial activity against Staphylococcus epidermidis assessed as zone of inhibition at 25 ug/ml; type: functional; conditions: read-out: IZ
# Proteus vulgaris = assay: Antibacterial activity against Proteus vulgaris assessed as zone of inhibition at 25 ug/ml; type: functional; conditions: read-out: IZ
# Escherichia coli [6] = assay: Antibacterial activity against Escherichia coli assessed as zone of inhibition at 25 ug/ml; type: functional; conditions: read-out: IZ
# Escherichia coli [7] = assay: Antibacterial activity against Escherichia coli assessed as inhibition of bacterial growth by agar well dilution assay; type: functional
# Staphylococcus aureus [8] = assay: Antibacterial activity against Staphylococcus aureus assessed as inhibition of bacterial growth by agar well dilution assay; type: functional
# Pasteurella multocida = assay: Antibacterial activity against Pasteurella multocida assessed as inhibition of bacterial growth by agar well dilution assay; type: functional
# Bacillus subtilis [9] = assay: Antibacterial activity against Bacillus subtilis assessed as inhibition of bacterial growth by agar well dilution assay; type: functional
# Pseudomonas aeruginosa [10] = assay: Antibacterial activity against Pseudomonas aeruginosa assessed as zone of inhibition incubated for 24 hrs by disk diffusion method; type: functional
# Staphylococcus aureus [11] = assay: Antibacterial activity against Staphylococcus aureus assessed as inhibition of bacterial growth by broth microdilution method; type: functional
# Klebsiella pneumoniae [12] = assay: Antibacterial activity against Klebsiella pneumoniae assessed as inhibition of bacterial growth by broth microdilution method; type: functional
# Escherichia coli [13] = assay: Antibacterial activity against Escherichia coli assessed as inhibition of bacterial growth by broth microdilution method; type: functional
# Pseudomonas aeruginosa [14] = assay: Antibacterial activity against Pseudomonas aeruginosa assessed as inhibition of bacterial growth by broth microdilution method; type: functional
# Staphylococcus aureus [15] = assay: Antimicrobial activity against Staphylococcus aureus ATCC 29213 assessed as inhibition of microbial growth incubated for 24 hrs by two-fold serial dilution assay; type: functional
# Bacillus subtilis [16] = assay: Antimicrobial activity against Bacillus subtilis ATCC 6633 assessed as inhibition of microbial growth incubated for 24 hrs by two-fold serial dilution assay; type: functional
# Priestia megaterium = assay: Antimicrobial activity against Bacillus megaterium ATCC 9885 assessed as inhibition of microbial growth incubated for 24 hrs by two-fold serial dilution assay; type: functional
# Micrococcus luteus = assay: Antimicrobial activity against Sarcina lutea assessed as inhibition of microbial growth incubated for 24 hrs by two-fold serial dilution assay; type: functional
# Klebsiella pneumoniae [17] = assay: Antimicrobial activity against Klebsiella pneumoniae ATCC 13883 assessed as inhibition of microbial growth incubated for 24 hrs by two-fold serial dilution assay; type: functional
# Pseudomonas aeruginosa [18] = assay: Antimicrobial activity against Pseudomonas aeruginosa ATCC 27953 assessed as inhibition of microbial growth incubated for 24 hrs by two-fold serial dilution assay; type: functional
# Escherichia coli [19] = assay: Antimicrobial activity against Escherichia coli ATCC 25922 assessed as inhibition of microbial growth incubated for 24 hrs by two-fold serial dilution assay; type: functional
# Candida albicans = assay: Antimicrobial activity against Candida albicans NRRL Y-477 assessed as inhibition of microbial growth incubated for 48 hrs by two-fold serial dilution assay; type: functional
# [20] = system: Cryptococcus deuterogattii; assay: Antifungal activity against Cryptococcus gattii VGII WM178/08 assessed as inhibition of fungal growth incubated for 24 to 48 hrs by CLSI protocol based broth microdilution method; type: functional, Cryptococcus bacillisporus; conditions: time 24-48 hrs
# Cryptococcus neoformans = assay: Antifungal activity against Cryptococcus neoformans […] assessed as inhibition of fungal growth incubated for 24 to 48 hrs by CLSI protocol based broth microdilution method; type: functional; conditions: time 24-48 hrs
# Staphylococcus aureus [21] = assay: Antibacterial activity against Staphylococcus aureus assessed as zone of inhibition by agar-disc diffusion method; type: functional
# Bacillus subtilis [22] = assay: Antibacterial activity against Bacillus subtilis assessed as zone of inhibition by agar-disc diffusion method; type: functional
# Staphylococcus aureus [23] = assay: Antimicrobial activity against methicillin-resistant Staphylococcus aureus assessed as inhibition of microbial growth incubated for 18 hrs by agar diffusion method; type: functional
# Pythium = assay: Antifungal activity against Pythium assessed as zone of inhibition incubated upto 9 days by disc diffusion assay; type: functional; conditions: time <= 9 day
# Vibrio cholerae = assay: Antibacterial activity against Vibrio cholerae assessed as inhibition of bacterial growth incubated for 24 hrs by broth microdilution method; type: functional
# Shigella flexneri = assay: Antibacterial activity against Shigella flexneri assessed as inhibition of bacterial growth incubated for 24 hrs by broth microdilution method; type: functional
# Staphylococcus aureus [24] = assay: Antibacterial activity against Staphylococcus aureus assessed as inhibition of bacterial growth incubated for 24 hrs by broth microdilution method; type: functional
# Staphylococcus aureus [25] = assay: Antibacterial activity against Staphylococcus aureus assessed as inhibition of bacterial growth; type: functional, organism-based
smiles,measurement,setting,value
COc1cc2c3c([nH]c2cc1C)C(=O)C=C(C)C3=O,MIC,Staphylococcus aureus [1],50 µg/mL
COC(=O)c1cc(O)c2[nH]c3ccc(O)c(CC=C(C)C)c3c2c1,MIC,Staphylococcus aureus [2],64 µg/mL
same,MIC,Staphylococcus aureus [3],64 µg/mL
same,MIC,Escherichia coli [4],64 µg/mL
same,MIC,Salmonella typhimurium,64 µg/mL
CC1(C)C=Cc2c(ccc3[nH]c4ccc(C=O)cc4c23)O1,MIC,Staphylococcus aureus [2],64 µg/mL
same,MIC,Staphylococcus aureus [3],64 µg/mL
same,MIC,Escherichia coli [4],64 µg/mL
same,MIC,Salmonella typhimurium,64 µg/mL
Cc1cccc2c3c([nH]c12)C(=O)/C(=C/c1ccc(Br)cc1)CC3,zone of inhibition at 25 µg/mL,[5],15 mm
same,zone of inhibition at 25 µg/mL,Proteus vulgaris,15 mm
same,zone of inhibition at 25 µg/mL,Escherichia coli [6],15 mm
C/C(=N/C(=S)C(=S)n1cc(CC(=O)O)c2ccccc21)C1CCCc2c1[nH]c1c([N+](=O)[O-])cc([N+](=O)[O-])cc21 (stereo not drawn),MIC,Escherichia coli [7],0.056 µg/mL
same,MIC,Staphylococcus aureus [8],0.056 µg/mL
same,MIC,Pasteurella multocida,0.056 µg/mL
same,MIC,Bacillus subtilis [9],0.056 µg/mL
C=CC(=C)c1c(C(=O)OC)cc(O)c2[nH]c3ccccc3c12,MIC,Staphylococcus aureus [2],4 µg/mL
same,MIC,Staphylococcus aureus [3],4 µg/mL
CCOc1nc2c(c(-c3ccc(F)cc3)c1C(N)=O)CCc1c-2[nH]c2ccccc12,inhibition zone (IZ),Pseudomonas aeruginosa [10],2.1 cm
Cc1cc2c([nH]c3ccc(O)cc32)c2c1OC(C)(C)C=C2,MIC90,Staphylococcus aureus [11],3.12 µg/mL
same,MIC90,Klebsiella pneumoniae [12],3.12 µg/mL
same,MIC90,Escherichia coli [13],> 100 µg/mL
same,MIC90,Pseudomonas aeruginosa [14],> 100 µg/mL
C/C(=N\C(Cc1c[nH]cn1)C(=O)Oc1cc(C(=O)O)cc(O)c1O)C1CCCc2c1[nH]c1c([N+](=O)[O-])cc([N+](=O)[O-])cc21 (stereo not drawn),MIC,Escherichia coli [7],0.056 µg/mL
same,MIC,Staphylococcus aureus [8],0.056 µg/mL
same,MIC,Pasteurella multocida,0.056 µg/mL
same,MIC,Bacillus subtilis [9],0.056 µg/mL
CSC(=S)NNC(=O)c1ccc(-n2c3c(c4ccccc42)CCCC3)cc1,MIC,Staphylococcus aureus [15],25 µg/mL
same,MIC,Bacillus subtilis [16],25 µg/mL
same,MIC,Priestia megaterium,25 µg/mL
same,MIC,Micrococcus luteus,25 µg/mL
same,MIC,Klebsiella pneumoniae [17],25 µg/mL
same,MIC,Pseudomonas aeruginosa [18],25 µg/mL
same,MIC,Escherichia coli [19],25 µg/mL
same,MIC,Candida albicans,25 µg/mL
c1ccc2c(c1)[nH]c1ccccc12 [CARBAZOLE],MIC,[20],160 µg/mL
same,MIC,Cryptococcus neoformans,160 µg/mL
O=C(O)c1cn(C2CC2)c2cc(N3CCNCC3)c(F)cc2c1=O [CIPROFLOXACIN],inhibition zone (IZ),Staphylococcus aureus [21],15 mm
same,inhibition zone (IZ),Bacillus subtilis [22],15 mm
C=C(C)C1Cc2c(cc(O)c3[nH]c4ccccc4c23)C(=O)O1 (stereo not drawn) [CLAUSAMINE A],MIC,Staphylococcus aureus [3],8 µg/mL
same,MIC,Staphylococcus aureus [23],64 µg/mL
C=C(C)C1Cc2c(cc(OC)c3[nH]c4ccccc4c23)C(=O)O1 (stereo not drawn) [CLAUSAMINE B],MIC,Staphylococcus aureus [3],0.25 µg/mL
COc1ccc2c(c1)[nH]c1cc(OC)c(C(=O)O)cc12 [CLAUSINE K],inhibition zone (IZ),Pythium,16.2 mm
COC(=O)c1cc2c(cc1OC)[nH]c1ccccc12 [CLAUSINE L],inhibition zone (IZ),Pythium,10.2 mm
COc1cc(C=O)c(CC=C(C)C)c2c1[nH]c1ccccc12 [EKEBERGININE],MIC,Vibrio cholerae,32 µg/mL
same,MIC,Shigella flexneri,32 µg/mL
same,MIC,Staphylococcus aureus [24],32 µg/mL
CC(C)=CCc1c(O)c(C=O)cc2c1[nH]c1ccccc12 [HEPTAPHYLLINE],inhibition zone (IZ),Staphylococcus aureus [21],14 mm
same,inhibition zone (IZ),Bacillus subtilis [22],12 mm
NC[C@H]1O[C@H](O[C@H]2[C@H](O)[C@@H](O[C@H]3O[C@H](CO)[C@@H](O)[C@H](N)[C@H]3O)[C@H](N)C[C@@H]2N)[C@H](O)[C@@H](O)[C@@H]1O [KANAMYCIN],MIC90,Staphylococcus aureus [11],12.5 µg/mL
same,MIC90,Klebsiella pneumoniae [12],12.5 µg/mL
COc1ccc2[nH]c3c4c(c(C)cc3c2c1)OC(C)(C)C=C4 [KOENIMBINE],IC50,Staphylococcus aureus [25],17 µM
CC1=CC(=O)c2[nH]c3ccccc3c2C1=O [MURRAYAQUINONE A],MIC,Staphylococcus aureus [1],50 µg/mL
